Experimental data from patent US4610987A, “Imidazoquinazolin-2-one compounds” (Daiichi Seiyaku Co., Ltd., priority 1983, dated 1986).
Where a name gives a salt, the structure may show the parent alone. Read-outs that look alike come from different tables or passages of the source.

Assays:
[1] = biological target: human heart PDE I; experiment: Inhibitory activity on phosphodiesterase, heart PDE I (cGMP); format: biochemical; conditions: cGMP substrate
Description: (§1) Phosphodiesterase fractions were separated from 105,000×g of supernatant fractions from human platelets and heart by DEAE-cellulose column chromatography using the method of Timothy et al. (Arch. Biochem. Biophy. 196, 465-474, 1979) with minor modifications. These fractions were designated PDE I, PDE II and PDE III, depending upon the order of their emergence from the DEAE-cellulose column.
(§2) Phosphodiesterase activity was measured by the method of Thompson and Appleman (Biochemistry 10, 311-316, 1971) with slight modifications. The reaction mixture consisted of 25 mM of Tris-HCl (pH 7.4), 5 mM of MgCl2, 1 μM of [^3 H]-cAMP or cGMP (approximate 20,000 cpm), various concentrations of a test compound and the enzyme preparation. After incubation for 10 minutes at 30° C., the reaction was terminated by boiling the reaction mixture for 45 seconds. 5'-[^3 H]-AMP or GMP formed by phosphodiesterase was converted to [^3 H]adenosine or [^3 H]quanosine by snake venom (Botherop Atrox) containing 5'-nucleotidase and the product isolated by a cation exchange resin was counted in a liquid scintillation counter.

[2] = biological target: human platelet PDE III (Homo sapiens, UniProt Q14432); experiment: biochemical; conditions: for IC50: cAMP substrate
human platelet PDE III, sequence (Q14432 whole entry): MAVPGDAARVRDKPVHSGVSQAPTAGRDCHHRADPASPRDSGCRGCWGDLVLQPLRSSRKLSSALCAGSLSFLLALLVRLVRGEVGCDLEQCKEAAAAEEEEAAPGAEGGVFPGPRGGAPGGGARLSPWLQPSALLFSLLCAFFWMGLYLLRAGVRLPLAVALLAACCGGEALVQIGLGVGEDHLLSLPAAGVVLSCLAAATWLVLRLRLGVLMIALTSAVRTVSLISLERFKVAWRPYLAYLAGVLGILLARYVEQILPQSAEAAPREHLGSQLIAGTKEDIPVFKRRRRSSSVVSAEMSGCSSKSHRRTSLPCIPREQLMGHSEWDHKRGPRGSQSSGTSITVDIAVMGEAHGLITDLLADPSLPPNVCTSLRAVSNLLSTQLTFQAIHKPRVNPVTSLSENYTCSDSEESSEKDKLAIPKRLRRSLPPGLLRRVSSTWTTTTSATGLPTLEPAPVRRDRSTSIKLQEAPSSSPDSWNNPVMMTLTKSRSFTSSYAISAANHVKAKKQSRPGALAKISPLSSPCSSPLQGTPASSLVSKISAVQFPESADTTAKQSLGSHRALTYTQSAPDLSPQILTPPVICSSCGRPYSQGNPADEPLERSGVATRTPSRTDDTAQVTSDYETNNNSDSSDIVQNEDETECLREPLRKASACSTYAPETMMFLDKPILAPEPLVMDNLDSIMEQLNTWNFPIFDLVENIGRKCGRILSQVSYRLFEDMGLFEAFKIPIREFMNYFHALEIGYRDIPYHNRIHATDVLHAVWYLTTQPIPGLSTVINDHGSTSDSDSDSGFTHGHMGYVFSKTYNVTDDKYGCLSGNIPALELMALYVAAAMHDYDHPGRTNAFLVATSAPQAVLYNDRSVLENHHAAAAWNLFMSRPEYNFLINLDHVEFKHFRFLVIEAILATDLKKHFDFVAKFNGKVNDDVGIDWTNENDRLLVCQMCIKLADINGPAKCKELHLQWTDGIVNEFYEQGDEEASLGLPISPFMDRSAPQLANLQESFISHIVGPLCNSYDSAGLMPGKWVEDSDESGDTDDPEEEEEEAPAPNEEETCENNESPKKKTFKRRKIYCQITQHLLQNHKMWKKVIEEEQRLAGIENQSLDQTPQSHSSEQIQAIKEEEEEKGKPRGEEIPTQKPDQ
Description: as §1, §2

[3] = biological target: human heart PDE III; experiment: Inhibitory activity on phosphodiesterase, heart PDE III (cAMP); format: biochemical; conditions: for IC50: cAMP substrate; for activity on heart PDE (in words): Table 6
Description: as §1, §2

[4] = biological target: human platelet PDE I (Homo sapiens, UniProt O76074); experiment: Inhibitory activity on phosphodiesterase, platelet PDE I (cGMP); format: biochemical; conditions: cGMP substrate
Description: as §1, §2

[5] = test system: human platelet PDE II; experiment: Inhibitory activity on phosphodiesterase, platelet PDE II (cGMP); format: biochemical; conditions: cGMP substrate
Description: as §1, §2

[6] = test system: platelet aggregation (rat platelet-rich-plasma); experiment: Test of Platelet Aggregation Inhibition (in vitro), rat PRP; format: cell-based, Wistar Imamichi rat; conditions: for IC50: Platelet, in vitro, rat blood
Description: The test was performed as follows in accordance with the method of Ashida et al, Thrombosis and Haemostasis, Vol. 40, 542 (1979).
Blood was taken by puncture from the heart of a Wistar Imamichi rat under anesthesia with pentobarbital into a syringe containing 1/10 volume of a 3.13% aqueous solution of sodium citrate dihydrate, and the citrated blood was centrifuged to obtain a platelet-rich-plasma (PRP). In the same manner, citrated blood was collected from the vein of a healthy human who had not taken aspirin or any other anti-inflammatory agent since before 10 days, followed by centrifugation to obtain PRP. 5 μl of each test compound was added to 0.445 ml of each of these PRP samples, and the system was warmed at 30° C. for 1 minute. 50 μl of an aggregation inducer (ADP or collagen) was then added thereto, and platelet aggregation was determined according to the method of Born, Nature, Vol. 194, 927 (1962).

[7] = Solubility Test (water-solubility)
[8] = test system: platelet aggregation; experiment: Test of Platelet Aggregation Inhibition (ex vivo; i.v.); format: in vivo, Wistar Imamichi rat; conditions: iv, 10 min, rat, i.v. 1.0 mg/Kg/min, 10 min
Description: As test animals, 5 to 6 Wistar Imamichi rats (body weight: about 260 g) that had been allowed food and water ad libitum were used per group. The test compound was dissolved in a physiological saline solution and continuously injected over a period of 10 or 15 minutes to the rats under anesthesia with pentobarbital through the femoral vein. Immediately after completion of the administration, citrated blood was collected from the heart, and platelet aggregation was determined in the same manner as in the test in vitro in Test Example 2.

[9] = test system: platelet aggregation; experiment: Test of Platelet Aggregation Inhibition (ex vivo, p.o.); format: in vivo, Wistar Imamichi rat; conditions: Platelet, po, ex vivo, rat, 10 mg/Kg p.o., 1 hour, *P<0.05, **P<0.01, ***P<0.001
Description: One hour later, citrated blood was taken from the heart, and platelet aggregation was determined in the same manner as described in the in vitro test. The inhibitory activity was compared with that of control and expressed in terms of percent inhibition.

[10] = ADP-induced, read-out: IC50, platelet aggregation inhibition in vitro, ADP
[11] = collagen-induced, read-out: IC50, platelet aggregation inhibition in vitro, Collagen
[12] = ADP, *P<0.05, **P<0.01, read-out: Percent Inhibition of platelet aggregation, ADP
[13] = collagen, *P<0.05, **P<0.01, read-out: Percent Inhibition of platelet aggregation, Collagen
[14] = ADP, read-out: ex vivo % inhibition of platelet aggregation, ADP
[15] = collagen, read-out: ex vivo % inhibition of platelet aggregation, Collagen

Structure (SMILES) | IC50 [1] [nM] | IC50 Ratio (PDE II) Heart/Platelet [2] | IC50 [2] [nM] | IC50 [3] [nM] | IC50 [4] [nM] | IC50 [5] [nM] | IC50 [6, 10] [nM] | IC50 [6, 11] [nM] | inhibition at 10 mg/kg [9, 14] [%] | inhibition at 10 mg/kg [9, 15] [%] | also measured
O=C1CN2Cc3cc(N4CCCCC4)ccc3N=C2N1 [7-Piperidino Compound, reference compound] | > 100000 | 5.3 | 150 | 800 | 93000 | 54000 | – | – | – | – | –
Nc1cc(-c2ccncc2)c[nH]c1=O [Amrinone, 5Amino-(3,4bipyridin)-6(1H)--one, reference compound] | > 100000 | – | – | 34000 | > 100000 | – | – | – | – | – | –
Cl.O=C1CN2Cc3c(sc4c3CCCC4)N=C2N1 [DH-6471, reference compound] | > 10000 | 7.1 | 65 | 460 | > 100000 | > 100000 | – | – | – | – | –
CN(C)c1cccc2c1CN1CC(=O)NC1=N2 [Example 2] | – | – | – | – | – | – | 2700 | 1500 | – | – | –
CC1CCCCN1c1ccc2c(c1)CN1CC(=O)NC1=N2 (stereo not drawn) [Example 5] | > 50000 | 2.3 | 350 | 800 | 45000 | 57000 | 2000 | 1700 | – | – | activity on heart PDE (in words) [3]: strong activity on heart PDE; water-solubility (in words) [7]: water-soluble; platelet aggregation inhibitory activity (in words) [6]: strong platelet aggregation inhibitory activity
O=C1CN2Cc3ccc(N4CCOCC4)cc3N=C2N1 [Example 8] | – | – | – | – | – | – | – | – | – | – | inhibition at 1 mg/kg [8, 12]: 16.5%; inhibition at 1 mg/kg [8, 13]: 48.5%
O=C1CN2Cc3c(ccc(N4CCCCC4)c3Cl)N=C2N1 [Example 9] | – | – | – | – | – | – | 7900 | 1200 | 25 | 32 | –
O=C1CN2Cc3cc(N4CCOCC4)c(Cl)cc3N=C2N1 [Example 17] | – | – | – | – | – | – | 360 | 100 | 47 | 68 | –
Cc1cc2c(cc1N1CCCCC1)CN1CC(=O)NC1=N2 [Example 18] | – | – | – | – | – | – | 5400 | 580 | – | – | –
CN(C)c1ccc2c(c1Cl)CN1CC(=O)NC1=N2 [Example 22] | > 100000 | 1.2 | 150 | 180 | 1600 | 2900 | 7000 | 1200 | 64 | 86 | activity on heart PDE (in words) [3]: strong activity on heart PDE; water-solubility (in words) [7]: water-soluble; inhibition at 1 mg/kg [8, 12]: 23.5%; inhibition at 1 mg/kg [8, 13]: 100%; platelet aggregation inhibitory activity (in words) [6]: strong platelet aggregation inhibitory activity
CCN(CC)c1ccc2c(c1Cl)CN1CC(=O)NC1=N2 [Example 23] | – | – | – | – | – | – | 5600 | 1300 | 25 | 70 | –
O=C1CN2Cc3cc(N4CCCC4)ccc3N=C2N1 [Example 26, 7-pyrrolidino-1,2,3,5-tetrahydroimidazo[2,1-b]quinazolin-2-one dihydrochloride] | – | – | – | – | – | – | 2600 | 1900 | – | – | –
O=C1CN2Cc3cc(N4CCOCC4)ccc3N=C2N1 [Example 28] | – | – | – | – | – | – | 5000 | 2000 | – | – | –
